Experimental data taken from patent US9821077B2, “Diagnostic substances for optical imaging testing on the basis of nanoparticular formulations” (NANOPET PHARMA GMBH, priority 2007, dated 2017).
Values joined by “and” are separate entries in the source; they are usually repeats but may differ in a detail not shown here. Equal entries are not always repeated.

Tests used:
[1] = Stability test, absorption as a function of time; format: physicochemical; conditions: purely aqueous formulation, 0.0005% ICG, room temperature, 7 days
Method: For the stability test the absorption in the maximum of the various formulations was measured as a function of time. For this purpose, 0.0005% ICG solutions were prepared and stored at room temperature.
For the stability test the absorption spectra of the various formulations were measured as a function of time.

[2] = test system: plasma protein; experiment: Plasma protein binding by wavelength shift in the absorption spectrum; format: in vitro ADME
Description: For this purpose, spectra of 700 nm to 900 nm of ICG in water and in plasma were compared with spectra of ICG micelles in water and in plasma.

[3] = in DMSO, used as the standard; cited from earlier work
[4] = Fluorescence measurements, quantum yield; format: physicochemical; conditions: in water; standard ICG in DMSO
Method: Fluorescence measurements were carried out by means of a FluoroLog-2 Spectrofluorometer (350 W Xenon lamp) of the company Spex. For this purpose, emission spectra of 700 nm to 900 nm were recorded. The excitation wavelength corresponded to the respective maximum of the formulation in the absorption spectrum (ICG in water λmax=780 nm and ICG micelles λmax=795 nm). Due to the s & r modus of the software DM 3000, the different lamp intensities of the different excitation wavelengths could be taken into account in the evaluation.
The quantum yield is calculated via the surface area below the emission curve. ICG in DMSO was used as the standard (Φ=0.13).
(§1) Fluorescence measurements were carried out by means of a Spectrofluorometer FP-6500 of the company JASCO. For this purpose, emission spectra of 770 to 900 nm were recorded. […] The quantum yield is calculated via the surface area below the emission curve. […]
as §1, §1

[5] = Absorption spectra, absorption maximum; format: physicochemical; conditions: dye in water
Method: Absorption spectra in a wavelength range of 700 nm to 900 nm were recorded with a UVIKON 933 Spectrophotometer (company Kontron) in the various solvents. →ICG in water λmax=780 nm ICO micelles λmax=797 nm (FIG. 1A)
Absorption spectra were recorded in a wavelength range of 600 nm to 900 nm with a DU®530 Beckman Spectralphotometer in the various solvents. →ICG in water λmax=779 nm ICG-Cithrol 10 MS micelles λmax=800 nm (FIG. 2A)
Absorption spectra were recorded in a wavelength range of 600 nm to 900 nm with a DU®530 Beckman Spectralphotometer in the various solvents. →ICG in water λmax=779 nm ICG-Crodet S40 LD micelles λmax=800 nm (FIG. 3A)
(§2) Absorption spectra were recorded in a wavelength range of 600 nm to 900 nm with a DU®530 Beckman Spectralphotometer in the various solvents. […]
as §2
Absorption spectra were recorded in a wavelength range of 600 nm to 900 nm with a DU®530 Beckman Spectralphotometer in the various solvents. →NW003.5 in water λmax (monomer)=788 nm NW003.5-Solutol® HS 15 micelles λmax=806 nm (FIG. 6B)
Absorption spectra were recorded in a wavelength range of 600 nm to 900 nm with a DU®530 Beckman Spectra'photometer in the various solvents. →IR-783 in water λmax (Monomer)=775 nm IR-783-Solutol® HS 15 micelles λmax=797 nm (FIG. 7B)

Row | Structure (SMILES) | standardized absorption after storage [1] | absorption maximum in plasma [2] [nm] | fluorescence quantum yield Φ of the standard [3] | fluorescence quantum yield Φ [4] | absorption maximum λmax [5]
1 | CC1(C)C(/C=C/C=C/C=C/C=C2\N(CCCCS(=O)(=O)O)c3ccc4ccccc4c3C2(C)C)=[N+](CCCCS(=O)(=O)[O-])c2ccc3ccccc3c21 [ICG, indocyanine green] | below 10% | 805 | 0.12 and 0.13 | 0.02 | 779 nm and 780 nm
2 | CC1(C)C(=CC=C2CCCC(C=CC3=[N+](CCCCS(=O)(=O)[O-])c4ccccc4C3(C)C)=C2Cl)N(CCCCS(=O)(=O)[O-])c2ccccc21.[Na+] [IR-783] | – | – | – | – | 775 nm
